What was measured:
Experiment in all cases: relative viability (nuclei count vs DMSO), 5 days (fraction); higher = more cells survive
BAM7 + Bortezomib = compound: CCOC1=CC=CC=C1N=NC2=C(NN(C2=O)C3=NC(=CS3)C4=CC=CC=C4)C [BAM7] + CC(C)C[C@H](NC(=O)[C@H](Cc1ccccc1)NC(=O)c1cnccn1)B(O)O [Bortezomib] (partner 0.002 µM)
Outline: (§1)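 Relative viability equals treated-well nuclei counts divided by vehicle-well nuclei counts. Counts came from 4× images of lung cancer cell lines grown in 1536-well plates for 5 days after pin-tool dosing on the day after seeding. Dosing used one drug alone or a fixed anchor-drug dose plus five library-drug doses (not always all listed) in √10 steps, and values are medians of duplicate plates.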

[1] = compound: CCn1c(-c2nonc2N)nc2c(C#CC(C)(C)O)ncc(OC[C@H]3CCCNC3)c21 + CC(=O)c1c(C)c2cnc(Nc3ccc(N4CCNCC4)cn3)nc2n(C2CCCC2)c1=O [Palbociclib] (partner 0.5 µM)
Outline: as §1

BAM7 + Linsitinib = compound: CCOC1=CC=CC=C1N=NC2=C(NN(C2=O)C3=NC(=CS3)C4=CC=CC=C4)C [BAM7] + C[C@]1(O)C[C@@H](c2nc(-c3ccc4ccc(-c5ccccc5)nc4c3)c3c(N)nccn32)C1 [Linsitinib] (partner 1 µM)
Outline: as §1

[2] = compound: CCn1c(-c2nonc2N)nc2c(C#CC(C)(C)O)ncc(OC[C@H]3CCCNC3)c21 + Cc1nc(Nc2ncc(C(=O)Nc3c(C)cccc3Cl)s2)cc(N2CCN(CCO)CC2)n1 [Dasatinib] (partner 0.075 µM)
Outline: as §1

| Cell Line | relative viability (BAM7 + Bortezomib; first compound 0.5 µM) | relative viability (BAM7 + Bortezomib; first compound 5 µM) | relative viability (BAM7 + Bortezomib; first compound 15.81 µM) | relative viability (BAM7 + Bortezomib; first compound 50 µM) | relative viability ([1]; first compound 0.01 µM) | relative viability ([1]; first compound 0.03162 µM) | relative viability ([1]; first compound 0.1 µM) | relative viability ([1]; first compound 0.3162 µM) | relative viability ([1]; first compound 1 µM) | relative viability (BAM7 + Linsitinib; first compound 0.5 µM) | relative viability (BAM7 + Linsitinib; first compound 5 µM) | relative viability (BAM7 + Linsitinib; first compound 15.81 µM) | relative viability (BAM7 + Linsitinib; first compound 50 µM) | relative viability ([2]; first compound 0.01 µM) | relative viability ([2]; first compound 0.03162 µM) | relative viability ([2]; first compound 0.1 µM) | relative viability ([2]; first compound 0.3162 µM) | relative viability ([2]; first compound 1 µM) |
| --- | --- | --- | --- | --- | --- | --- | --- | --- | --- | --- | --- | --- | --- | --- | --- | --- | --- | --- |
| HCC-44 | 1.01 | 0.921 | 0.879 | 0.838 | 0.973 | 0.939 | 0.964 | 0.813 | 1.04 | 0.717 | 0.67 | 0.62 | 0.689 |  |  |  |  |  |
| HCC-78 | 0.586 | 0.63 | 0.419 | 0.608 | 0.519 | 0.487 | 0.454 | 0.465 | 0.43 | 0.544 | 0.393 | 0.376 | 0.585 | 0.344 | 0.361 | 0.423 | 0.291 | 0.389 |
| HCC-366 | 1.09 | 1.11 | 1.08 | 1.08 | 0.378 | 0.419 | 0.396 | 0.359 | 0.344 | 0.67 | 0.501 | 0.583 | 0.677 | 0.597 | 0.6 | 0.602 | 0.593 | 0.606 |
| HCC-827 | 1.1 | 1.17 | 1.05 | 0.917 | 0.473 | 0.507 | 0.412 | 0.431 | 0.466 | 0.957 | 0.912 | 0.905 | 0.881 | 0.242 | 0.34 | 0.296 | 0.354 | 0.335 |
| IA-LM | 0.789 | 0.98 | 0.756 | 0.777 |  |  |  |  |  | 0.755 | 0.705 | 0.545 | 0.672 |  |  |  |  |  |
| LK-2 |  |  |  |  | 0.641 | 0.714 | 0.556 | 0.625 | 0.887 | 0.675 | 0.708 | 0.629 | 0.59 | 0.252 | 0.275 |  |  | 0.406 |
| NCI-H358 |  |  |  |  | 0.139 | 0.147 | 0.122 | 0.151 | 0.131 | 0.782 | 0.878 | 0.704 | 0.787 | 0.196 | 0.19 | 0.169 | 0.135 | 0.183 |
| NCI-H522 |  |  |  |  | 0.9 | 1.12 | 1.22 | 0.781 | 0.916 |  |  |  |  | 0.796 | 0.949 | 0.845 | 0.718 | 0.998 |
| NCI-H596 | 1.01 | 1.13 | 0.889 | 1.25 |  |  |  |  |  | 1.05 | 1.15 | 1.02 | 1.14 | 0.641 | 0.67 | 0.563 | 0.48 | 0.554 |
| NCI-H1299 | 1.02 | 1.04 | 1.03 | 0.963 |  |  |  |  |  | 1.02 | 1.14 | 1.02 | 0.936 |  |  |  |  |  |
| NCI-H1395 |  |  |  |  | 0.605 | 0.527 | 0.604 | 0.495 | 0.509 | 1.02 | 1.07 | 1.03 | 1.2 | 0.448 | 0.387 | 0.395 | 0.393 | 0.386 |
| NCI-H1563 | 0.972 | 0.82 | 0.899 | 1.06 |  |  |  |  |  | 1.22 | 1.19 | 1.13 | 1.24 | 0.449 | 0.437 | 0.441 | 0.511 | 0.446 |
| NCI-H1623 |  |  |  |  |  |  |  |  |  |  |  |  |  | 0.567 | 0.482 | 0.548 | 0.438 | 0.453 |
| NCI-H1648 |  |  |  |  | 0.266 | 0.272 | 0.235 | 0.262 | 0.317 |  |  |  |  |  |  |  |  |  |
| NCI-H1650 | 0.235 | 0.297 | 0.202 | 0.199 | 0.382 | 0.291 | 0.396 | 0.153 | 0.276 |  |  |  |  | 0.338 | 0.302 | 0.297 | 0.266 | 0.25 |
| NCI-H1703 | 0.428 | 0.304 | 0.164 | 0.338 |  |  |  |  |  | 0.791 | 0.856 | 0.75 | 0.791 |  |  |  |  |  |
| NCI-H1793 |  |  |  |  | 0.295 | 0.326 |  | 0.295 | 0.315 | 0.971 | 1.15 | 0.653 | 0.789 | 0.361 | 0.406 | 0.399 | 0.359 | 0.421 |
| NCI-H1944 |  |  |  |  | 0.359 | 0.353 | 0.348 | 0.314 | 0.325 | 1.3 | 1.36 | 1.13 | 1.07 | 0.215 | 0.224 | 0.213 | 0.212 | 0.212 |
| NCI-H2170 |  |  |  |  | 0.391 | 0.441 | 0.378 | 0.372 | 0.435 |  |  |  |  | 0.566 | 0.532 | 0.57 | 0.535 | 0.516 |
| NCI-H2342 |  |  |  |  | 0.521 | 0.549 | 0.551 | 0.679 | 0.512 |  |  |  |  | 0.286 | 0.304 | 0.32 | 0.317 | 0.33 |
| SK-MES-1 |  |  |  |  | 0.306 | 0.298 | 0.299 | 0.318 | 0.308 | 1.11 | 1.05 | 1.03 | 1.07 | 0.359 | 0.386 | 0.446 | 0.447 | 0.373 |
| SW 900 |  |  |  |  | 0.558 | 0.557 | 0.483 | 0.649 | 0.444 |  |  |  |  | 0.731 | 0.527 | 0.566 | 0.544 | 0.538 |

Source: the supplement of paper PMC10307832
